Source: patent US5817646A, “Polar lipid composition of plant origin” (Laboratoires Inocosm, priority 1991, dated 1998)

Molecular target: T1, human leukocytic elastase (HLE) (Homo sapiens, UniProt P08246)
T1 sequence (P08246 30-267): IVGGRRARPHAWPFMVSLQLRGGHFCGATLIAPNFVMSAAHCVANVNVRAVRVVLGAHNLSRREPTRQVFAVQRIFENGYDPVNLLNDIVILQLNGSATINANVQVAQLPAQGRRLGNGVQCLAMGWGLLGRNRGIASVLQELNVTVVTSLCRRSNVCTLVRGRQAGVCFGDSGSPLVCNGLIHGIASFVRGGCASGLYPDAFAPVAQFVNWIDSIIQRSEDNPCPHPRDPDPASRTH
Experiment: Inhibition of human leukocytic elastase, kinetics of p-nitroaniline release at 410 nm
Assay type: biochemical
Conditions: read-out: percentage of inhibition of the anti-elastase activity after 10 min
Protocol: A test to ascertain the activity of a polar lipid mixture in accordance with the invention on the inhibition of a specific enzyme, human leukocytic elastase (HLE), was carried out at the Connective Tissue Laboratory of the CNRS at Cretail (France). HLE is able to destroy elastin and therefore cause cell aging. HLE also detrimentally effects the arterial walls.
The activity of the mixture in accordance with the invention was compared with that of oleic acid, the reference substance.
This test measures the inhibition of the enzymatic activity by different preparations tested by following the kinetics at 410 nm of the degradation of a substrate, S, corresponding essentially to elastin: Me-O-Suc-Ala2 -Pro-Val-pNa(N-Methoxy-succinyl-Ala-Ala-Pro-Val-p-Nitroanilide). In this test, changes in the concentration of p-Nitroaniline, released due to the effect of the activity of HLE on the substrate, S, is measured over time.
In order to carry out these tests:
either 0.1M Tris-Cl+0.01% Triton X-100 at pH 8
was used as the reaction buffer, B. […]
Spectrophotometer readings were taken at 410 nm relative to the p-Nitroaniline concentration and the results obtained were then transferred to Curves 1 to 5, which correspond to the cell samples of the same numbering. […]
On each of these curves, the time in min was recorded on the abscissa and the optical deviation, OD, read at 410 nm, was recorded on the ordinate. […]

CCCCCCCC/C=C\CCCCCCCC(=O)O [Reference oleic acid, oleic acid]
inhibition at 0.1 µg/mL (oleic acid at 0.1 μg/ml): 36%
inhibition at 1 µg/mL (oleic acid at 1.0 μg/ml): 84%
